Publication PMC9516684 (2022)

How the values were obtained:
[1] = test system: (5′-CCGGTACCGG)2 (TA step) (DNA, duplex) CCGGTACCGG; test: UV-visible absorbance titration 355 nm, Bard fit; conditions: Na+ (20 mM sodium phosphate); 20 mM sodium phosphate pH 7.0, 298 K; site size s 3.17 (±0.07); per base
[2] = test system: (5′-CCGGATCCGG)2 (AT step) (DNA, duplex) CCGGATCCGG; test: luminescence titration 750 nm, Bard fit; conditions: Na+ (20 mM sodium phosphate); 20 mM sodium phosphate pH 7.0, 298 K; s 5.5; caption says luminescence 750 nm, column head 415 nm absorbance; per base
[3] = test system: AT (DNA, duplex) ATATATATATAT; test: UV-visible absorbance titration 355 nm, Bard fit; conditions: Na+ (20 mM sodium phosphate), 20 mM sodium phosphate pH 7.0, 298 K, per base
[4] = test system: (5′-CCGGTACCGG)2 (TA step) (DNA, duplex) CCGGTACCGG; test: luminescence titration 750 nm, Bard fit; conditions: Na+ (20 mM sodium phosphate); 20 mM sodium phosphate pH 7.0, 298 K; s 7.6; caption says luminescence 750 nm, column head 415 nm absorbance; per base
[5] = test system: (5′-CCGGATCCGG)2 (AT step) (DNA, duplex) CCGGATCCGG; test: UV-visible absorbance titration 355 nm, Bard fit; conditions: Na+ (20 mM sodium phosphate); 20 mM sodium phosphate pH 7.0, 298 K; site size s 3.5 (±0.7); per base
[6] = test system: AT (DNA, duplex) ATATATATATAT; test: luminescence titration 750 nm, Bard fit; conditions: Na+ (20 mM sodium phosphate), 20 mM sodium phosphate pH 7.0, 298 K, per base
[7] = test system: AT (DNA, duplex) ATATATATATAT; test: UV-visible absorbance titration 415 nm, Bard fit; conditions: Na+ (20 mM sodium phosphate), 20 mM sodium phosphate pH 7.0, 298 K, per base

SMILES	Kb [1]	Kb [2]	Kb ([3]; site size s 4.4 (±0.1))	Kb ([3]; site size s 5.6 (±0.1))	Kb [4]	Kb [5]	Kb ([6]; site size s 4.6 (±0.1))	Kb ([6]; site size s 7.7 (±0.08))	Kb ([7]; site size s 4.5 (±0.1))	Kb ([7]; site size s 6.0 (±0.2))	Kb ([6]; site size s 3.8 (±0.1))	Kb ([6]; site size s 5.0 (±0.1))
[Os+2].c1cnc2c(ccc3nccnc32)n1.c1cnc2c(ccc3nccnc32)n1.c1cnc2nc3c4cccnc4c4ncccc4c3nc2c1	2.2 (±0.4) × 10^6 M^–1	1.0 (±0.2) × 10^6 M^–1	2.0 (±0.3) × 10^6 M^–1	5.0 (±0.8) × 10^6 M^–1	1.4 (±0.3) × 10^6 M^–1	3.8 (±1.5) × 10^6 M^–1	4.5 (±1.3) × 10^6 M^–1	1.4 (±0.4) × 10^7 M^–1				
[Os+2].c1ccc2nc3c4cccnc4c4ncccc4c3nc2c1.c1cnc2c(ccc3nccnc32)n1.c1cnc2c(ccc3nccnc32)n1									8.7 (±1.2) × 10^6 M^–1	5.1 (±1.6) × 10^6 M^–1	8.5 (±0.5) × 10^6 M^–1	1.1 (±0.3) × 10^7 M^–1
